Laboratory results: patent US4229204A, “Trifluoromethylphenyl isoxazolyl benzoates” (Monsanto Company, priority 1978, dated 1980)

Assays:
Type in all cases: in vivo
Crabgrass = assay: Pre-emergent herbicidal test; details: 4 WAT; further: ranges in brackets are in %
Method: (§1) The pre-emergent test was conducted as follows:
(§2) A good grade of top soil was placed in aluminum pans and compacted to a depth of three-eighths to one-half inch from the top of the pan. On the top of the soil was placed a predetermined number of seeds or vegetative propagules of various plant species which were pressed into the soil surface. The soil required to level fill the pans after seeding or adding vegetative propagules was weighed into a pan. A known amount of the active ingredient applied in a solvent or as a wettable powder and the soil were thoroughly mixed, and used as a cover layer for prepared pans.
(§3) The herbicidal rating was obtained by means of a fixed scale based on the percent injury of each plant species. The ratings are defined as follows: […]

Hemp Sesbania = assay: Pre-emergent herbicidal test; details: 4 WAT; further: ranges in brackets are in %
Method: as §1, §2, §3

Panicum Spp. = assay: Pre-emergent herbicidal test; details: 4 WAT; further: ranges in brackets are in %
Method: as §1, §2, §3

Rice = assay: Pre-emergent herbicidal test; details: 4 WAT; further: ranges in brackets are in %
Method: as §1, §2, §3

Sorghum = assay: Pre-emergent herbicidal test; details: 4 WAT; further: ranges in brackets are in %
Method: as §1, §2, §3

Soybean = assay: Pre-emergent herbicidal test; details: 4 WAT; further: ranges in brackets are in %
Method: as §1, §2, §3

Sugarbeet = assay: Pre-emergent herbicidal test; details: 4 WAT; further: ranges in brackets are in %
Method: as §1, §2, §3

Wheat = assay: Pre-emergent herbicidal test; details: 4 WAT; further: ranges in brackets are in %
Method: as §1, §2, §3

Wild Buckwheat = assay: Pre-emergent herbicidal test; details: 4 WAT; further: ranges in brackets are in %
Method: as §1, §2, §3

Barnyardgrass [1] = assay: Pre-emergent herbicidal test; further: ranges in brackets are in %
Method: as §1, §2, §3
(§4) The compounds were also tested by utilizing the above procedure on the following plant species: […]

Canada Thistle [2] = assay: Pre-emergent herbicidal test; details: 2 WAT, 11.2 kg/h; further: ranges in brackets are in %
Method: as §1, §2, §3, §4

Cocklebur [3] = assay: Pre-emergent herbicidal test; further: ranges in brackets are in %
Method: as §1, §2, §3, §4

Downy Brome [4] = assay: Pre-emergent herbicidal test; further: ranges in brackets are in %
Method: as §1, §2, §3, §4

Johnsongrass [5] = assay: Pre-emergent herbicidal test; details: 2 WAT, 11.2 kg/h; further: ranges in brackets are in %
Method: as §1, §2, §3, §4

Lambsquarters [6] = assay: Pre-emergent herbicidal test; further: ranges in brackets are in %
Method: as §1, §2, §3, §4

Morningglory [7] = assay: Pre-emergent herbicidal test; further: ranges in brackets are in %
Method: as §1, §2, §3, §4

Quackgrass [8] = assay: Pre-emergent herbicidal test; details: 2 WAT, 11.2 kg/h; further: ranges in brackets are in %
Method: as §1, §2, §3, §4

Smartweed [9] = assay: Pre-emergent herbicidal test; further: ranges in brackets are in %
Method: as §1, §2, §3, §4

Velvetleaf [10] = assay: Pre-emergent herbicidal test; further: ranges in brackets are in %
Method: as §1, §2, §3, §4

Yellow Nutsedge [11] = assay: Pre-emergent herbicidal test; details: 2 WAT, 11.2 kg/h; further: ranges in brackets are in %
Method: as §1, §2, §3, §4

Barnyardgrass [12] = assay: Post-emergent herbicidal test; further: ranges in brackets are in %
Method: (§5) The post-emergent tests were conducted as follows:
(§6) The active ingredients are applied in spray form to two or three week old specimens of various plant species. The spray, a solution or wettable powder suspension containing the appropriate rate of active ingredient to give the desired test rate and a surfactant, is applied to the plants.
as §4

Canada Thistle [13] = assay: Post-emergent herbicidal test; details: 4 WAT, 11.2 kg/h; further: ranges in brackets are in %
Method: as §5, §6, §4

Cocklebur [14] = assay: Post-emergent herbicidal test; further: ranges in brackets are in %
Method: as §5, §6, §4

Downy Brome [15] = assay: Post-emergent herbicidal test; further: ranges in brackets are in %
Method: as §5, §6, §4

Johnsongrass [16] = assay: Post-emergent herbicidal test; details: 4 WAT, 11.2 kg/h; further: ranges in brackets are in %
Method: as §5, §6, §4

Lambsquarters [17] = assay: Post-emergent herbicidal test; further: ranges in brackets are in %
Method: as §5, §6, §4

Morningglory [18] = assay: Post-emergent herbicidal test; further: ranges in brackets are in %
Method: as §5, §6, §4

Quackgrass [19] = assay: Post-emergent herbicidal test; details: 4 WAT, 11.2 kg/h; further: ranges in brackets are in %
Method: as §5, §6, §4

Smartweed [20] = assay: Post-emergent herbicidal test; further: ranges in brackets are in %
Method: as §5, §6, §4

Velvetleaf [21] = assay: Post-emergent herbicidal test; further: ranges in brackets are in %
Method: as §5, §6, §4

Yellow Nutsedge [22] = assay: Post-emergent herbicidal test; details: 4 WAT, 11.2 kg/h; further: ranges in brackets are in %
Method: as §5, §6, §4

harber barley = assay: Growth regulation of barley (Table X)
Source text: Table X, below, summarizes observations made when the compound of Example Number 3 was applied to harber barley.

COC(=O)c1ccccc1-c1cc(-c2cccc(C(F)(F)F)c2)no1 [Example 3, Methyl 2-[3-[3-(Trifluoromethyl)-Phenyl]-5-Isoxazolyl]Benzoate]
1 (25-49): herbicidal rating (Wheat; 1.12 kg/h) | herbicidal rating (Cocklebur [3]; 4 WAT, 1.12 kg/h) | herbicidal rating (Downy Brome [4]; 4 WAT, 1.12 kg/h) | herbicidal rating (Lambsquarters [6]; 4 WAT, 1.12 kg/h) | herbicidal rating (Velvetleaf [10]; 4 WAT, 1.12 kg/h) | herbicidal rating (Cocklebur [14]; 2 WAT, 1.12 kg/h) | herbicidal rating (Cocklebur [14]; 4 WAT, 5.60 kg/h) | herbicidal rating (Lambsquarters [17]; 2 WAT, 1.12 kg/h) | herbicidal rating (Lambsquarters [17]; 4 WAT, 5.60 kg/h) | herbicidal rating (Morningglory [18]; 2 WAT, 1.12 kg/h) | herbicidal rating (Morningglory [18]; 4 WAT, 5.60 kg/h) | herbicidal rating (Smartweed [20]; 2 WAT, 1.12 kg/h) | herbicidal rating (Smartweed [20]; 4 WAT, 5.60 kg/h) | herbicidal rating (Velvetleaf [21]; 2 WAT, 1.12 kg/h) | herbicidal rating (Velvetleaf [21]; 4 WAT, 5.60 kg/h)
0 (0-24): herbicidal rating (Barnyardgrass [12]; 2 WAT, 1.12 kg/h) | herbicidal rating (Barnyardgrass [12]; 4 WAT, 5.60 kg/h) | herbicidal rating (Downy Brome [15]; 2 WAT, 1.12 kg/h) | herbicidal rating (Downy Brome [15]; 4 WAT, 5.60 kg/h) | herbicidal rating (Yellow Nutsedge [22])
4 (100): herbicidal rating (Lambsquarters [17]; 4 WAT, 11.2 kg/h) | herbicidal rating (Smartweed [20]; 4 WAT, 11.2 kg/h)
3 (75-99): herbicidal rating (Barnyardgrass [12]; 4 WAT, 11.2 kg/h) | herbicidal rating (Quackgrass [19])
90 % of Control: Plant Height (harber barley; time of treatment 16 days, 250 ppm, 3 weeks after treatment) | Plant Height (harber barley; time of treatment 42 days, 250 ppm, 3 weeks after treatment)
3 (75-100): herbicidal rating (Hemp Sesbania; 1.12 kg/h) | herbicidal rating (Hemp Sesbania; 5.60 kg/h) | herbicidal rating (Panicum Spp.; 5.60 kg/h) | herbicidal rating (Rice; 1.12 kg/h) | herbicidal rating (Rice; 5.60 kg/h) | herbicidal rating (Sorghum; 5.60 kg/h) | herbicidal rating (Soybean; 5.60 kg/h) | herbicidal rating (Sugarbeet; 5.60 kg/h) | herbicidal rating (Wild Buckwheat; 5.60 kg/h) | herbicidal rating (Barnyardgrass [1]; 2 WAT, 11.2 kg/h) | herbicidal rating (Barnyardgrass [1]; 4 WAT, 1.12 kg/h) | herbicidal rating (Barnyardgrass [1]; 4 WAT, 5.60 kg/h) | herbicidal rating (Canada Thistle [2]) | herbicidal rating (Lambsquarters [6]; 2 WAT, 11.2 kg/h) | herbicidal rating (Morningglory [7]; 4 WAT, 5.60 kg/h) | herbicidal rating (Quackgrass [8]) | herbicidal rating (Smartweed [9]; 2 WAT, 11.2 kg/h) | herbicidal rating (Smartweed [9]; 4 WAT, 1.12 kg/h) | herbicidal rating (Smartweed [9]; 4 WAT, 5.60 kg/h)
93 % of Control: Plant Height (harber barley; time of treatment 42 days, 10 ppm, 3 weeks after treatment)
2 (50-74): herbicidal rating (Crabgrass; 1.12 kg/h) | herbicidal rating (Crabgrass; 5.60 kg/h) | herbicidal rating (Panicum Spp.; 1.12 kg/h) | herbicidal rating (Sorghum; 1.12 kg/h) | herbicidal rating (Soybean; 1.12 kg/h) | herbicidal rating (Sugarbeet; 1.12 kg/h) | herbicidal rating (Wheat; 5.60 kg/h) | herbicidal rating (Wild Buckwheat; 1.12 kg/h) | herbicidal rating (Cocklebur [3]; 2 WAT, 11.2 kg/h) | herbicidal rating (Cocklebur [3]; 4 WAT, 5.60 kg/h) | herbicidal rating (Downy Brome [4]; 2 WAT, 11.2 kg/h) | herbicidal rating (Downy Brome [4]; 4 WAT, 5.60 kg/h) | herbicidal rating (Johnsongrass [5]) | herbicidal rating (Lambsquarters [6]; 4 WAT, 5.60 kg/h) | herbicidal rating (Morningglory [7]; 2 WAT, 11.2 kg/h) | herbicidal rating (Morningglory [7]; 4 WAT, 1.12 kg/h) | herbicidal rating (Velvetleaf [10]; 2 WAT, 11.2 kg/h) | herbicidal rating (Velvetleaf [10]; 4 WAT, 5.60 kg/h) | herbicidal rating (Yellow Nutsedge [11]) | herbicidal rating (Canada Thistle [13]) | herbicidal rating (Cocklebur [14]; 4 WAT, 11.2 kg/h) | herbicidal rating (Downy Brome [15]; 4 WAT, 11.2 kg/h) | herbicidal rating (Johnsongrass [16]) | herbicidal rating (Morningglory [18]; 4 WAT, 11.2 kg/h) | herbicidal rating (Velvetleaf [21]; 4 WAT, 11.2 kg/h)
106 % of Control: Plant Height (harber barley; time of treatment 42 days, 50 ppm, 3 weeks after treatment)
97 % of Control: Plant Height (harber barley; time of treatment 16 days, 250 ppm, 6 weeks after treatment)
